Measurements from patent US20230146795A1, “ENHANCEMENT OF ANTI-TUMOR ACTIVITY OF SHP2 INHIBITOR PYRIMIDINONE IN COMBINATION WITH NOVEL CANCER MEDICINES IN CANCERS” (TAIHO PHARMACEUTICAL CO., LTD., priority 2020, published 2023).

Key:
Type in all cases: cell-based
[1] = system: NCI-H358; test: Anti-proliferation assay (CellTiter-Glo 2.0), combination index, NCI-H358
Description: (§1) Cell lines were obtained from ATCC or Health Science Research Resources Bank.
(§2) Each cell lines were collected by ordinary method, then suspended in indicated medium containing 10% fetal bovine serum in table 3. The number of cells seeded per well was set to 500 cells/20 μL. […] The concentration of each anti-cancer reagents set to 8 concentrations including 0 nM. After adding the medicine to the cells, the cells were further incubated at 37° C. for 3 days under 5% CO2. Cell survival rates were calculated by adding 20 μL of CellTiter-Glo(registered trademark) 2. 0 (Promega) solution to each well, incubating the cells at room temperature for 10 minutes, and then measuring the chemiluminescence intensity of each well using a plate reader (ARVO).
(§3) A combination index (CI) value at each combined concentration of the medicines was determined.

[2] = system: MKN45; test: Anti-proliferation assay (CellTiter-Glo 2.0), combination index, MKN45
Description: as §1, §2, §3

[3] = system: RT4; test: Anti-proliferation assay (CellTiter-Glo 2.0), combination index, RT4
Description: as §1, §2, §3

[4] = Compound 1 3330 nmol/L + Doxorubicin 370 nmol/L, molar ratio 1:0.1
[5] = Compound 1 10000 nmol/L + Doxorubicin 1110 nmol/L, molar ratio 1:0.1
[6] = Compound 1 123 nmol/L + Doxorubicin 123 nmol/L, molar ratio 1:1
[7] = Compound 1 370 nmol/L + Doxorubicin 370 nmol/L, molar ratio 1:1
[8] = Compound 1 1110 nmol/L + Doxorubicin 1110 nmol/L, molar ratio 1:1
[9] = Compound 1 41.2 nmol/L + Doxorubicin 13.7 nmol/L, molar ratio 1:0.3
[10] = Compound 1 123 nmol/L + Doxorubicin 41.2 nmol/L, molar ratio 1:0.3
[11] = Compound 1 370 nmol/L + Doxorubicin 123 nmol/L, molar ratio 1:0.3
[12] = Compound 1 3330 nmol/L + Doxorubicin 1110 nmol/L, molar ratio 1:0.3
[13] = Compound 1 10000 nmol/L + Doxorubicin 3330 nmol/L, molar ratio 1:0.3
[14] = Compound 1 13.7 nmol/L + Oxalliplatin 370 nmol/L, molar ratio 1:27
[15] = Compound 1 41.2 nmol/L + Oxalliplatin 1110 nmol/L, molar ratio 1:27
[16] = Compound 1 123 nmol/L + Oxalliplatin 3330 nmol/L, molar ratio 1:27
[17] = Compound 1 370 nmol/L + Oxalliplatin 10000 nmol/L, molar ratio 1:27
[18] = Compound 1 4.57 nmol/L + Oxalliplatin 41.2 nmol/L, molar ratio 1:9
[19] = Compound 1 12.3 nmol/L + Paclitaxel 1.46 nmol/L, molar ratio 1:0.1
[20] = Compound 1 37.0 nmol/L + Paclitaxel 4.39 nmol/L, molar ratio 1:0.1
[21] = Compound 1 111 nmol/L + Paclitaxel 13.2 nmol/L, molar ratio 1:0.1
[22] = Compound 1 333 nmol/L + Paclitaxel 39.5 nmol/L, molar ratio 1:0.1
[23] = Compound 1 1000 nmol/L + Paclitaxel 119 nmol/L, molar ratio 1:0.1
[24] = Compound 1 4.12 nmol/L + Paclitaxel 0.14 nmol/L, molar ratio 1:0.03
[25] = Compound 1 12.3 nmol/L + Paclitaxel 0.41 nmol/L, molar ratio 1:0.03
[26] = Compound 1 37.0 nmol/L + Paclitaxel 1.23 nmol/L, molar ratio 1:0.03
[27] = Compound 1 111 nmol/L + Paclitaxel 3.70 nmol/L, molar ratio 1:0.03
[28] = Compound 1 333 nmol/L + Paclitaxel 11.1 nmol/L, molar ratio 1:0.03
[29] = Compound 1 1000 nmol/L + Paclitaxel 33.3 nmol/L, molar ratio 1:0.03
[30] = Compound 1 41.2 nmol/L + SN-38 2.06 nmol/L, molar ratio 1:0.05
[31] = Compound 1 123 nmol/L + SN-38 6.17 nmol/L, molar ratio 1:0.05
[32] = Compound 1 370 nmol/L + SN-38 18.5 nmol/L, molar ratio 1:0.05
[33] = Compound 1 1110 nmol/L + SN-38 55.6 nmol/L, molar ratio 1:0.05
[34] = Compound 1 4.57 nmol/L + SN-38 0.69 nmol/L, molar ratio 1:0.1
[35] = Compound 1 13.7 nmol/L + SN-38 2.06 nmol/L, molar ratio 1:0.1
[36] = Compound 1 41.2 nmol/L + SN-38 6.17 nmol/L, molar ratio 1:0.1
[37] = Compound 1 123 nmol/L + SN-38 18.5 nmol/L, molar ratio 1:0.1
[38] = Compound 1 370 nmol/L + SN-38 55.6 nmol/L, molar ratio 1:0.1
[39] = Compound 1 1110 nmol/L + SN-38 167 nmol/L, molar ratio 1:0.1
[40] = Compound 1 3330 nmol/L + SN-38 500 nmol/L, molar ratio 1:0.1

COc1cccc2c1C(=O)c1c(O)c3c(c(O)c1C2=O)C[C@@](O)(C(=O)CO)C[C@@H]3O[C@H]1C[C@H](N)[C@H](O)[C@H](C)O1 [Doxorubicin]
CI [1, 4]: 0.845 | Fa [1, 4]: 0.7275 | CI [1, 5]: 0.249 | Fa [1, 5]: 0.9706 | CI [2, 6]: 0.596 | Fa [2, 6]: 0.5818 | CI [2, 7]: 0.267 | Fa [2, 7]: 0.8738 | CI [2, 8]: 0.361 | Fa [2, 8]: 0.9317 | CI [3, 9]: 0.866 | Fa [3, 9]: 0.2952 | CI [3, 10]: 0.403 | Fa [3, 10]: 0.5056 | CI [3, 11]: 0.554 | Fa [3, 11]: 0.6537 | CI [3, 12]: 0.191 | Fa [3, 12]: 0.9964 | CI [3, 13]: 0.063 | Fa [3, 13]: 0.9999

O=C1[O][Pt]2([NH][C@@H]3CCCC[C@H]3[NH]2)[O]C1=O [Oxalliplatin]
CI [1, 14]: 0.699 | Fa [1, 14]: 0.1376 | CI [1, 15]: 0.424 | Fa [1, 15]: 0.3478 | CI [1, 16]: 0.623 | Fa [1, 16]: 0.4795 | Description ([1]; combination effect, Compound 1 + Oxalliplatin, molar ratio 1:27): Synergy (0.3-0.7) | CI [2, 14]: 0.571 | Fa [2, 14]: 0.4748 | CI [2, 15]: 0.322 | Fa [2, 15]: 0.6458 | CI [2, 16]: 0.273 | Fa [2, 16]: 0.7808 | CI [2, 17]: 0.216 | Fa [2, 17]: 0.9038 | CI [3, 18]: 0.932 | Fa [3, 18]: 0.2140

CC(=O)O[C@H]1C(=O)[C@@]2(C)[C@H]([C@H](OC(=O)c3ccccc3)[C@]3(O)C[C@H](OC(=O)[C@H](O)[C@@H](NC(=O)c4ccccc4)c4ccccc4)C(C)=C1C3(C)C)[C@]1(OC(C)=O)CO[C@@H]1C[C@@H]2O [Paclitaxel]
CI [2, 19]: 0.106 | Fa [2, 19]: 0.4372 | CI [2, 20]: 0.222 | Fa [2, 20]: 0.5083 | CI [2, 21]: 0.307 | Fa [2, 21]: 0.6577 | CI [2, 22]: 0.409 | Fa [2, 22]: 0.7864 | CI [2, 23]: 0.957 | Fa [2, 23]: 0.8179 | CI [3, 24]: 0.690 | Fa [3, 24]: 0.1066 | CI [3, 25]: 0.828 | Fa [3, 25]: 0.1742 | CI [3, 26]: 0.386 | Fa [3, 26]: 0.4157 | CI [3, 27]: 0.366 | Fa [3, 27]: 0.6114 | CI [3, 28]: 0.371 | Fa [3, 28]: 0.7739 | CI [3, 29]: 0.681 | Fa [3, 29]: 0.8306 | Description ([3]; combination effect, Compound 1 + Paclitaxel, molar ratio 1:0.03): Synergy (0.3-0.7)

SN-38
CI [2, 30]: 0.750 | Fa [2, 30]: 0.3061 | CI [2, 31]: 0.390 | Fa [2, 31]: 0.6496 | CI [2, 32]: 0.261 | Fa [2, 32]: 0.8647 | CI [2, 33]: 0.536 | Fa [2, 33]: 0.8972 | CI [3, 34]: 0.322 | Fa [3, 34]: 0.2202 | CI [3, 35]: 0.554 | Fa [3, 35]: 0.2912 | CI [3, 36]: 0.621 | Fa [3, 36]: 0.4442 | CI [3, 37]: 0.472 | Fa [3, 37]: 0.6700 | CI [3, 38]: 0.554 | Fa [3, 38]: 0.7937 | CI [3, 39]: 0.310 | Fa [3, 39]: 0.9240 | CI [3, 40]: 0.064 | Fa [3, 40]: 0.9872
